# In ChEMBL document CHEMBL4507293 (2021):
# Columns and labels:
# [1] = molecular target: cGMP-inhibited 3',5'-cyclic phosphodiesterase 3A (Homo sapiens, UniProt Q14432); experiment: Biochemical assay (PDE3A)
# [2] = molecular target: cGMP-specific 3',5'-cyclic phosphodiesterase (Homo sapiens, UniProt O76074); experiment: Biochemical assay (PDE5A)
# [3] = molecular target: Dual 3',5'-cyclic-AMP and -GMP phosphodiesterase 11A (Homo sapiens, UniProt Q9HCR9); experiment: Biochemical assay (PDE11A)
# Dual 3',5'-cyclic-AMP and -GMP phosphodiesterase 11A, sequence (Q9HCR9 whole entry): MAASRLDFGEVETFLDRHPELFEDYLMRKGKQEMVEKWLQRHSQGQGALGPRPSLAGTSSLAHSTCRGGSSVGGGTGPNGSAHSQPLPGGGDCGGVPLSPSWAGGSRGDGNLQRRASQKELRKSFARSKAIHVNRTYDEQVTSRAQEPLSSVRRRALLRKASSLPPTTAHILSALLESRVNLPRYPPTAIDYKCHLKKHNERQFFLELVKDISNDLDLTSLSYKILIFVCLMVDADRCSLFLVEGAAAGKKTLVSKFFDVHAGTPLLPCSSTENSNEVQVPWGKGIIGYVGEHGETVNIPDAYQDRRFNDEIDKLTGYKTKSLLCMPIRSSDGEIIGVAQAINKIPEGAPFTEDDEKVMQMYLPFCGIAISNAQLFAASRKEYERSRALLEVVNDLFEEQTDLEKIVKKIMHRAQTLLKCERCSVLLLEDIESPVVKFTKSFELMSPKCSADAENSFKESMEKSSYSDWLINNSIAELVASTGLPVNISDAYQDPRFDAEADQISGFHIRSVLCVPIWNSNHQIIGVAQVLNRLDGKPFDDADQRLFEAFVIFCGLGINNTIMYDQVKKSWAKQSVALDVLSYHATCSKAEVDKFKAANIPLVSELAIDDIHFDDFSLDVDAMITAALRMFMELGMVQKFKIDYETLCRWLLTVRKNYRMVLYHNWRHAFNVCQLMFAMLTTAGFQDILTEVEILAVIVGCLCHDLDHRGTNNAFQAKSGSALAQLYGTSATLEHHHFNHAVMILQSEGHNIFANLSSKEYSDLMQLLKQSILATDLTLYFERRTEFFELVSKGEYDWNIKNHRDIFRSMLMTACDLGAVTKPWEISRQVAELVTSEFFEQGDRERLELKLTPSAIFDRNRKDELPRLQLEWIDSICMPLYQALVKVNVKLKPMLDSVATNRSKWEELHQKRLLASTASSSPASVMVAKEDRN
# [4] = tested on: Tyrosine-protein kinase ABL1 (Homo sapiens), P00519 [Q252H]; conditions: Compound concentration 100.0 nM
# [5] = molecular target: Tyrosine-protein kinase Blk (Homo sapiens) (UniProt P51451); conditions: Compound concentration 100.0 nM
# [6] = molecular target: Mitotic checkpoint serine/threonine-protein kinase BUB1 (Homo sapiens) (UniProt O43683); conditions: Compound concentration 100.0 nM
# [7] = molecular target: Calcium/calmodulin-dependent protein kinase type IV (Homo sapiens) (UniProt Q16566); conditions: Compound concentration 100.0 nM
# [8] = molecular target: Cyclin-dependent kinase 11B (Homo sapiens) (UniProt P21127); conditions: Compound concentration 100.0 nM
# [9] = molecular target: Cyclin-dependent kinase-like 3 (Homo sapiens) (UniProt Q8IVW4); conditions: Compound concentration 100.0 nM
# [10] = molecular target: Cyclin-dependent kinase-like 5 (Homo sapiens) (UniProt O76039); conditions: Compound concentration 100.0 nM
# [11] = molecular target: Casein kinase I isoform delta (Homo sapiens) (UniProt P48730); conditions: Compound concentration 100.0 nM
# [12] = molecular target: Casein kinase I isoform gamma-3 (Homo sapiens) (UniProt Q9Y6M4); conditions: Compound concentration 100.0 nM
# [13] = molecular target: Serine/threonine-protein kinase DCLK3 (Homo sapiens) (UniProt Q9C098); conditions: Compound concentration 100.0 nM
# Serine/threonine-protein kinase DCLK3 (Homo sapiens), sequence (Q9C098 whole entry): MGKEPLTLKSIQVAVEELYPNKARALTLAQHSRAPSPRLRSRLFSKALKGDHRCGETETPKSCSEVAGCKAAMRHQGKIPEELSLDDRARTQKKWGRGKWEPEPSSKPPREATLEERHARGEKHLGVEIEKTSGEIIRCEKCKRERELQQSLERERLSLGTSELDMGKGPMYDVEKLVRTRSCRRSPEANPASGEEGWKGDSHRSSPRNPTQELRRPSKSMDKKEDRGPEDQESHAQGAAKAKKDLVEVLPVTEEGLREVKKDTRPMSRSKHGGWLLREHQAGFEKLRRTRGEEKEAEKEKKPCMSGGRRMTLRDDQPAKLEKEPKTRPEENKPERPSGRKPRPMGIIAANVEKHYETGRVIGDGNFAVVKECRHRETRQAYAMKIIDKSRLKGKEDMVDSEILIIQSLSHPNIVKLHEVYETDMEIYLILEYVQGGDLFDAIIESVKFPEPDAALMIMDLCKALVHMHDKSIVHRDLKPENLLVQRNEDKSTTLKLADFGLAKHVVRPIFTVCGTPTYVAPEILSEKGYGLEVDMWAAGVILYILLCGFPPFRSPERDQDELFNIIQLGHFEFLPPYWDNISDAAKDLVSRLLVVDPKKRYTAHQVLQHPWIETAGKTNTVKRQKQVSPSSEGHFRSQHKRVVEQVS
# [14] = molecular target: Dual specificity tyrosine-phosphorylation-regulated kinase 1A (Homo sapiens) (UniProt Q13627); conditions: Compound concentration 100.0 nM
# [15] = molecular target: Ephrin type-A receptor 6 (Homo sapiens) (UniProt Q9UF33); conditions: Compound concentration 100.0 nM
# Ephrin type-A receptor 6 (Homo sapiens), sequence (Q9UF33 whole entry): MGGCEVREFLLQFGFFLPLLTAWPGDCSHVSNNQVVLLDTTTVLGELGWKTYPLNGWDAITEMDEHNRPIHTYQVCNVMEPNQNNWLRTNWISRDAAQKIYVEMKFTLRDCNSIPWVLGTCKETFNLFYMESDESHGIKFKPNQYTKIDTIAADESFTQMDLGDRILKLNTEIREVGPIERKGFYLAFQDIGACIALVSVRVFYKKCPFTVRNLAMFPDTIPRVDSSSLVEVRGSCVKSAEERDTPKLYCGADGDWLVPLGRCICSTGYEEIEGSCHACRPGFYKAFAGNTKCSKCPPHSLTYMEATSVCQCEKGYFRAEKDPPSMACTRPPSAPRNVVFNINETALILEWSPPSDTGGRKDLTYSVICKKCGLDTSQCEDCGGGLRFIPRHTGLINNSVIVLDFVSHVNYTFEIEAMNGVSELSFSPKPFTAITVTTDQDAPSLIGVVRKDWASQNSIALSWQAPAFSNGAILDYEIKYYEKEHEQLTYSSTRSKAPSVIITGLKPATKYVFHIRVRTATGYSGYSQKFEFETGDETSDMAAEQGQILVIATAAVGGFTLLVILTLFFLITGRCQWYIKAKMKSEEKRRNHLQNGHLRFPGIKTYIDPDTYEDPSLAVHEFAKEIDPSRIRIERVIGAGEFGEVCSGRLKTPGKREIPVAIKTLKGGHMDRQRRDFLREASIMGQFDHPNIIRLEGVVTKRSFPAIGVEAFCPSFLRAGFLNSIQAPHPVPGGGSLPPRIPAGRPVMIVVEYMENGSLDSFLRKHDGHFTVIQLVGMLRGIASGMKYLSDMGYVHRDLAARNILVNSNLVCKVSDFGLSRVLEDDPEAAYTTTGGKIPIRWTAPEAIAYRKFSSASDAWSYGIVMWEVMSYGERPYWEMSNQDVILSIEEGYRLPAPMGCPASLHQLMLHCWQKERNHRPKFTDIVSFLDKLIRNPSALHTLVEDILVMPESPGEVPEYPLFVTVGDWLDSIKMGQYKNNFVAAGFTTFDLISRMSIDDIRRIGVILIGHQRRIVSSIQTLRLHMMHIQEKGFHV
# [16] = molecular target: Mitogen-activated protein kinase 3 (Homo sapiens) (UniProt P27361); conditions: Compound concentration 100.0 nM
# [17] = molecular target: Focal adhesion kinase 1 (Homo sapiens) (UniProt Q05397); conditions: Compound concentration 100.0 nM
# [18] = molecular target: Tyrosine-protein kinase Fgr (Homo sapiens) (UniProt P09769); conditions: Compound concentration 100.0 nM
# [19] = tested on: Receptor-type tyrosine-protein kinase FLT3 (Homo sapiens), P36888 [UNDEFINED MUTATION]; conditions: Compound concentration 100.0 nM
# [20] = molecular target: Tyrosine-protein kinase FRK (Homo sapiens) (UniProt P42685); conditions: Compound concentration 100.0 nM
# [21] = molecular target: Rhodopsin kinase GRK7 (Homo sapiens) (UniProt Q8WTQ7); conditions: Compound concentration 100.0 nM
# [22] = molecular target: Homeodomain-interacting protein kinase 2 (Homo sapiens) (UniProt Q9H2X6); conditions: Compound concentration 100.0 nM
# [23] = molecular target: Inhibitor of nuclear factor kappa-B kinase subunit beta (Homo sapiens) (UniProt O14920); conditions: Compound concentration 100.0 nM
# [24] = molecular target: Tyrosine-protein kinase JAK1 (Homo sapiens) (UniProt P23458); conditions: Compound concentration 100.0 nM
# [25] = molecular target: Mitogen-activated protein kinase 8 (Homo sapiens) (UniProt P45983); conditions: Compound concentration 100.0 nM
# Mitogen-activated protein kinase 8 (Homo sapiens), sequence (P45983 whole entry): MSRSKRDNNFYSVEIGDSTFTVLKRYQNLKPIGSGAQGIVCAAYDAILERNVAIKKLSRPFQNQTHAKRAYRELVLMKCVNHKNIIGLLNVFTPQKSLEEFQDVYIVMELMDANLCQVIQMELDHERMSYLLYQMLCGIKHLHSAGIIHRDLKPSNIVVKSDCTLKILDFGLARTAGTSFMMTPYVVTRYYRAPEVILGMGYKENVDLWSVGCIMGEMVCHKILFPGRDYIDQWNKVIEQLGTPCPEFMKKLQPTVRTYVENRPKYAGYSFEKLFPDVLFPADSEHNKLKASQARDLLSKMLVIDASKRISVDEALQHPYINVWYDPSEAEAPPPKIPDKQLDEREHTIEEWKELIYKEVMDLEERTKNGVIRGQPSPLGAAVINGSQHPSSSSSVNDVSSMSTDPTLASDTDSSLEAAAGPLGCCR
# [26] = molecular target: Mitogen-activated protein kinase 10 (Homo sapiens) (UniProt P53779); conditions: Compound concentration 100.0 nM
# [27] = molecular target: Mitogen-activated protein kinase kinase kinase kinase 5 (Homo sapiens) (UniProt Q9Y4K4); conditions: Compound concentration 100.0 nM
# [28] = molecular target: Dual specificity mitogen-activated protein kinase kinase 1 (Homo sapiens) (UniProt Q02750); conditions: Compound concentration 100.0 nM
# [29] = tested on: Hepatocyte growth factor receptor (Homo sapiens), P08581 [Y1235D]; conditions: Compound concentration 100.0 nM
# [30] = molecular target: MAP kinase-interacting serine/threonine-protein kinase 2 (Homo sapiens) (UniProt Q9HBH9); conditions: Compound concentration 100.0 nM
# [31] = molecular target: Serine/threonine-protein kinase MRCK beta (Homo sapiens) (UniProt Q9Y5S2); conditions: Compound concentration 100.0 nM
# [32] = molecular target: Mitogen-activated protein kinase 12 (Homo sapiens) (UniProt P53778); conditions: Compound concentration 100.0 nM
# Mitogen-activated protein kinase 12 (Homo sapiens), sequence (P53778 whole entry): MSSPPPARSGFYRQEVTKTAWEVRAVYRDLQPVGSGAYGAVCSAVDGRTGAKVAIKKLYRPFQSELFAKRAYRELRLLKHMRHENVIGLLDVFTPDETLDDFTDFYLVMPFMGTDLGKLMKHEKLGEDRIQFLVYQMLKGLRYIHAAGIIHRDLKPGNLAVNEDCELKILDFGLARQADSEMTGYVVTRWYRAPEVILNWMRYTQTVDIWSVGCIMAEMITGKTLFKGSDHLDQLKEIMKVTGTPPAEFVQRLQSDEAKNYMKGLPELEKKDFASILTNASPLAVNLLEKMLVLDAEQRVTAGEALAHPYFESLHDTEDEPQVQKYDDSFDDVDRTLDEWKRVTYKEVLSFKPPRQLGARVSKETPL
# [33] = molecular target: Platelet-derived growth factor receptor alpha (Homo sapiens) (UniProt P16234); conditions: Compound concentration 100.0 nM
# [34] = molecular target: 1-phosphatidylinositol 3-phosphate 5-kinase (Homo sapiens) (UniProt Q9Y2I7); conditions: Compound concentration 100.0 nM
# [35] = molecular target: Phosphatidylinositol 4-phosphate 5-kinase type-1 alpha (Homo sapiens) (UniProt Q99755); conditions: Compound concentration 100.0 nM
# [36] = molecular target: Serine/threonine-protein kinase PLK4 (Homo sapiens) (UniProt O00444); conditions: Compound concentration 100.0 nM
# Serine/threonine-protein kinase PLK4 (Homo sapiens), sequence (O00444 whole entry): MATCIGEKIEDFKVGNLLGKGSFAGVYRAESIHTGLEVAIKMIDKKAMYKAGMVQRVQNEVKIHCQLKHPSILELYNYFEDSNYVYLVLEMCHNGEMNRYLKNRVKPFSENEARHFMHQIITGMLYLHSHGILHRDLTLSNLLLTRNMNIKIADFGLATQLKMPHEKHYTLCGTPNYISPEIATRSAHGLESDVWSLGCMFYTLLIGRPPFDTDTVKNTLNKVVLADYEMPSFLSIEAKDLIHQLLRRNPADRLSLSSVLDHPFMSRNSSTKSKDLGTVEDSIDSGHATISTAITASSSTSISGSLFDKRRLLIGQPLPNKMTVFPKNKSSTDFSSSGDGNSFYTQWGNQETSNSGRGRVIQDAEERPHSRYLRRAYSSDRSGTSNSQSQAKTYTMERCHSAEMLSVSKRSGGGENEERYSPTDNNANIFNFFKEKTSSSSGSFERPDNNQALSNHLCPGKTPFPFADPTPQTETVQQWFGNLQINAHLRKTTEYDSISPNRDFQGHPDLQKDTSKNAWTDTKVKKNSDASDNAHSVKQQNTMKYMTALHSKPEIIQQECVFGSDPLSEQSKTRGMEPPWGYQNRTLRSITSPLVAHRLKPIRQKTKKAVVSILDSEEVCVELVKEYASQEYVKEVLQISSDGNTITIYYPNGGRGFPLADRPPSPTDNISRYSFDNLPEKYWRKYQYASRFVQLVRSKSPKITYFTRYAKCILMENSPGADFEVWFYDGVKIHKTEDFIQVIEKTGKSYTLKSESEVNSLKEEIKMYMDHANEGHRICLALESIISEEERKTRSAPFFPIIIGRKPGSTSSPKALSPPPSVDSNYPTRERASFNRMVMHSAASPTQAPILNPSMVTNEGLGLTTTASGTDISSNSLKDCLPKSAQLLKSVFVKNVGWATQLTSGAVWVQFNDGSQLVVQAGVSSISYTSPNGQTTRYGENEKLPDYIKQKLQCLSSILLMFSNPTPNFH
# [37] = molecular target: Protein kinase C eta type (Homo sapiens) (UniProt P24723); conditions: Compound concentration 100.0 nM
# Protein kinase C eta type (Homo sapiens), sequence (P24723 whole entry): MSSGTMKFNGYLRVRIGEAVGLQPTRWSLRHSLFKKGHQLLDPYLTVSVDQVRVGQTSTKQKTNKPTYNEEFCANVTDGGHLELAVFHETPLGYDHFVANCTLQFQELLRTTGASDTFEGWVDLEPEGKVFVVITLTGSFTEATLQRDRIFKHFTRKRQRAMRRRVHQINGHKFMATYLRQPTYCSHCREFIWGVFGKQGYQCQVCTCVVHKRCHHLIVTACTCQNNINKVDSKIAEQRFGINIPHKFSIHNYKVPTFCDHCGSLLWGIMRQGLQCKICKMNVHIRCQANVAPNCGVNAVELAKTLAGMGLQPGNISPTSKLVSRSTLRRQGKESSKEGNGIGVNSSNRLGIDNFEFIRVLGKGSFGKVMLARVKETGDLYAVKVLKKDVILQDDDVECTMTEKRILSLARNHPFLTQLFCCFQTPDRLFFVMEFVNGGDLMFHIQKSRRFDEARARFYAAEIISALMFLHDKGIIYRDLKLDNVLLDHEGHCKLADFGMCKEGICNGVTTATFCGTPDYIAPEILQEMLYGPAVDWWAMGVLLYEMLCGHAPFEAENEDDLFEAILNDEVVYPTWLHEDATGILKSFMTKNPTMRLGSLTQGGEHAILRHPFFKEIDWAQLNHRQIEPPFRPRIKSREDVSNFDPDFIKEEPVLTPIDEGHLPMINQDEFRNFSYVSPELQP
# [38] = molecular target: SRSF protein kinase 3 (Homo sapiens) (UniProt Q9UPE1); conditions: Compound concentration 100.0 nM
# [39] = molecular target: Angiopoietin-1 receptor (Homo sapiens) (UniProt Q02763); conditions: Compound concentration 100.0 nM
# [40] = molecular target: TRAF2 and NCK-interacting protein kinase (Homo sapiens) (UniProt Q9UKE5); conditions: Compound concentration 100.0 nM
# [41] = molecular target: Transient receptor potential cation channel subfamily M member 6 (Homo sapiens) (UniProt Q9BX84); conditions: Compound concentration 100.0 nM
# [42] = molecular target: Tyrosine-protein kinase TXK (Homo sapiens) (UniProt P42681); conditions: Compound concentration 100.0 nM
# [43] = molecular target: Tyrosine-protein kinase receptor TYRO3 (Homo sapiens) (UniProt Q06418); conditions: Compound concentration 100.0 nM
# [44] = molecular target: Mitogen-activated protein kinase kinase kinase 20 (Homo sapiens) (UniProt Q9NYL2); conditions: Compound concentration 100.0 nM
# [45] = molecular target: D(1B) dopamine receptor (Homo sapiens) (UniProt P21918); conditions: Compound concentration 10.0 uM
smiles,measurement,setting,value
COCCOc1nc(-c2ccc(Cl)nc2)nc2c1CN(C(=O)c1ncn3ccccc13)CC2 [THPP-1],Ki,[1],3.3 µM (not active)
same,Ki,[2],116 nM
same,Ki,[3],0.298 µM (not active)
same,residual activity,[4],81%
same,residual activity,[5],75%
same,residual activity,[6],82%
same,residual activity,[7],100%
same,residual activity,[8],100%
same,residual activity,[9],96%
same,residual activity,[10],100%
same,residual activity,[11],84%
same,residual activity,[12],100%
same,residual activity,[13],100%
same,residual activity,[14],78%
same,residual activity,[15],100%
same,residual activity,[16],89%
same,residual activity,[17],99%
same,residual activity,[18],100%
same,residual activity,[19],96%
same,residual activity,[20],100%
same,residual activity,[21],91%
same,residual activity,[22],100%
same,residual activity,[23],100%
same,residual activity,[24],100%
same,residual activity,[25],100%
same,residual activity,[26],91%
same,residual activity,[27],91%
same,residual activity,[28],100%
same,residual activity,[29],100%
same,residual activity,[30],100%
same,residual activity,[31],100%
same,residual activity,[32],72%
same,residual activity,[33],100%
same,residual activity,[34],90%
same,residual activity,[35],100%
same,residual activity,[36],85%
same,residual activity,[37],97%
same,residual activity,[38],66%
same,residual activity,[39],100%
same,residual activity,[40],100%
same,residual activity,[41],100%
same,residual activity,[42],100%
same,residual activity,[43],100%
same,residual activity,[44],100%
same,inhibition,[45],-3.46%
CC(C)CC(=O)N1CCc2nc(-c3ccc(Br)cc3)nc(N(C)Cc3ccccc3)c2C1 [THPP-1-NC],Ki,[1],> 50 µM (not active)
same,Ki,[2],6890 nM (not active)
same,Ki,[3],8.8 µM (not active)
same,residual activity,[4],88%
same,residual activity,[5],84%
same,residual activity,[6],78%
same,residual activity,[7],100%
same,residual activity,[8],100%
same,residual activity,[9],89%
same,residual activity,[10],100%
same,residual activity,[11],83%
same,residual activity,[12],100%
same,residual activity,[13],100%
same,residual activity,[14],78%
same,residual activity,[15],100%
same,residual activity,[16],88%
same,residual activity,[17],92%
same,residual activity,[18],99%
same,residual activity,[19],99%
same,residual activity,[20],100%
same,residual activity,[21],74%
same,residual activity,[22],100%
same,residual activity,[23],100%
same,residual activity,[24],100%
same,residual activity,[25],100%
same,residual activity,[26],78%
same,residual activity,[27],93%
same,residual activity,[28],100%
same,residual activity,[29],100%
same,residual activity,[30],73%
same,residual activity,[31],99%
same,residual activity,[32],79%
same,residual activity,[33],98%
same,residual activity,[34],91%
same,residual activity,[35],100%
same,residual activity,[36],70%
same,residual activity,[37],94%
same,residual activity,[38],79%
same,residual activity,[39],100%
same,residual activity,[40],100%
same,residual activity,[41],100%
same,residual activity,[42],100%
same,residual activity,[43],100%
same,residual activity,[44],100%
same,inhibition,[45],19.4%
